This is an account of results in patent US20230322747A1, “OXADIAZOLE HDAC6 INHIBITORS AND USES THEREOF” (Eikonizo Therapeutics, Inc., priority 2022, published 2023).

Structures are written as SMILES. pIC50: −log10 of the molar value.

The target in one assay is Human HDAC8 (Homo sapiens (Human), UniProt Q9BY41). The experiment in a line: Caliper endpoint assay for HDAC8 enzymatic activity. It counts as biochemical. The conditions noted are these: in vitro enzymatic.
Another assay addresses Human HDAC6 (Homo sapiens (Human), UniProt Q9UBN7). The experiment in a line: HDAC6 enzymatic activity assay (Caliper endpoint or fluorogenic format). It counts as biochemical. The conditions noted are these: for pIC50: in vitro enzymatic; for Selectivity (6 v 8) (fold): ratio of HDAC8 IC50/HDAC6 IC50.

Human HDAC6, sequence (Q9UBN7 whole entry): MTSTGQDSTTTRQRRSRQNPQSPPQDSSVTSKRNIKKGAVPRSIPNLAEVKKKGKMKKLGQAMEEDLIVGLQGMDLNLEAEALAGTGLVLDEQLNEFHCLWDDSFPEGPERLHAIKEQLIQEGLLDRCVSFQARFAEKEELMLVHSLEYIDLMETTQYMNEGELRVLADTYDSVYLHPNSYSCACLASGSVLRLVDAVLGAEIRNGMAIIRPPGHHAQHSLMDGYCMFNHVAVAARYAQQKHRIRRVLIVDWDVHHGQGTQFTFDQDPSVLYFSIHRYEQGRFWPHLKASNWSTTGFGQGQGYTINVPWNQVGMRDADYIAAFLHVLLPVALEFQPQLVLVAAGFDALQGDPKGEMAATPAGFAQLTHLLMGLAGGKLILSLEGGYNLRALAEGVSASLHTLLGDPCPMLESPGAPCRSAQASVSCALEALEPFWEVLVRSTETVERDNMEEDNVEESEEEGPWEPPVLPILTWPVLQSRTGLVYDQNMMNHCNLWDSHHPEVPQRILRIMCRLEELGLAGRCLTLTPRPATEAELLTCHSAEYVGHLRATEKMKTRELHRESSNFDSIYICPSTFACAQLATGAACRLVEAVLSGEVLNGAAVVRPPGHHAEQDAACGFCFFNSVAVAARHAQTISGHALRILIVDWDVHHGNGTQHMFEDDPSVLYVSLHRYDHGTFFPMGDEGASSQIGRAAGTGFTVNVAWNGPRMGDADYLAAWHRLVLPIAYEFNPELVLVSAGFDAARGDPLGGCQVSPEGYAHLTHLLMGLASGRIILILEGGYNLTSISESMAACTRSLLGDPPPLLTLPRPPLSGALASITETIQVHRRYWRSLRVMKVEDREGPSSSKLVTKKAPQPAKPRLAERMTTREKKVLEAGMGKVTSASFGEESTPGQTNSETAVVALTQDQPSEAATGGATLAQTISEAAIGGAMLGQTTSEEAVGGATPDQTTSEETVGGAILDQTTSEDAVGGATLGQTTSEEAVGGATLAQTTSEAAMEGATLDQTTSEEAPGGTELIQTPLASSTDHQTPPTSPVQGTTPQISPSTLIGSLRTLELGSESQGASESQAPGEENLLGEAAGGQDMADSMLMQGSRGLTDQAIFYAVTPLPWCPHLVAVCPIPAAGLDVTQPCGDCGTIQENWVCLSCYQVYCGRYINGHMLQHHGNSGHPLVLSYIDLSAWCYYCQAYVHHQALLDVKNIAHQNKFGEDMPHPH
Human HDAC8, sequence (Q9BY41 whole entry): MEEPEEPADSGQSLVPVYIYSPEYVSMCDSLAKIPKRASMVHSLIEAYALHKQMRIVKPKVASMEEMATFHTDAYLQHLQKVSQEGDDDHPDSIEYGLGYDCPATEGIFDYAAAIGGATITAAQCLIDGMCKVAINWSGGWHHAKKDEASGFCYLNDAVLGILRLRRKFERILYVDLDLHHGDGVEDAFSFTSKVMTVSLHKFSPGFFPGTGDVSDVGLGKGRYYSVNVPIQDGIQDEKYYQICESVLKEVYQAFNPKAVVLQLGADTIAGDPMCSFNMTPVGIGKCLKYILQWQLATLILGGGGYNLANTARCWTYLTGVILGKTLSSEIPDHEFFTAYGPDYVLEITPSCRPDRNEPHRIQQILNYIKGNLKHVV

The pIC50 is −log10 of the IC50, conventionally taken in molar units. A higher pIC50 goes with a small IC50. On to `CCn1ccc(OCc2ccc(-c3nnc(C(F)F)o3)cn2)n1` [Compound 69], for which the pIC50 against Human HDAC8 is 4.00 to 5.00; against Human HDAC6, 6.00 to 7.00. Moreover, the “Selectivity (6 v 8) (fold)” value at Human HDAC6 is “IV (IV: >100-1000)”.

For `N#Cc1c(F)cccc1OCc1ccc(-c2nnc(C(F)F)o2)cn1` [Compound 29], at Human HDAC8, the pIC50 is 4.00 to 5.00. In addition, on Human HDAC6, the pIC50 was 7.00 to 9.00 and the “Selectivity (6 v 8) (fold)” value is given as “IV (IV: >100-1000)”.

Regarding `FC(F)c1nnc(-c2ccc(COc3cccc4cccnc34)nc2)o1` [Compound 10, 2-(difluoromethyl)-5-(6-((quinolin-8-yloxy)methyl)pyridin-3-yl)-1,3,4-oxadiazole], on Human HDAC8, the pIC50 was under 4.00. Besides, at Human HDAC6, the pIC50 is 7.00 to 9.00 and the “Selectivity (6 v 8) (fold)” value is on record as “V (V: >1000)”.

With `N#CCc1ccc(OCc2ccc(-c3nnc(C(F)F)o3)cn2)cc1` [Compound 43], the pIC50 at Human HDAC8 is 4.00 to 5.00. Further, on Human HDAC6, the pIC50 was 7.00 to 9.00 and the “Selectivity (6 v 8) (fold)” value was “IV (IV: >100-1000)”.

`Cn1nc(-c2nc3ccc(OCc4ccc(-c5nnc(C(F)F)o5)cn4)cc3o2)ccc1=O` [Compound 204]: the pIC50 against Human HDAC8 was under 4.00. At Human HDAC6, the pIC50 was 7.00 to 9.00 and the “Selectivity (6 v 8) (fold)” value is reported as “V (V: >1000)”.

As for `FC(F)c1nnc(-c2ccc(C(F)(F)Oc3cccc4cccnc34)nc2)o1` [Compound 13, 2-(6-(difluoro(quinolin-8-yloxy)methyl)pyridin-3-yl)-5-(difluoromethyl)-1,3,4-oxadiazole], the negative-log IC50 (pIC50) against Human HDAC8 is under 4.00. Further, on Human HDAC6, the pIC50 was 7.00 to 9.00 and the “Selectivity (6 v 8) (fold)” value is “V (V: >1000)”.

In the case of `FC(F)c1nnc(-c2ccc(COc3ccnc(N4CCOCC4)n3)nc2)o1` [Compound 99], the values for the pIC50 on Human HDAC8 and against Human HDAC6 were under 4.00 and 6.00 to 7.00, respectively. Also, on Human HDAC6, the “Selectivity (6 v 8) (fold)” value is reported as “V (V: >1000)”.

`CN1CCc2c(OCc3ccc(-c4nnc(C(F)F)o4)cn3)noc2C1` [Compound 191, 3-((5-(5-(Difluoromethyl)-1,3,4-oxadiazol-2-yl)pyridin-2-yl)methoxy)-6-methyl-4,5,6,7-tetrahydroisoxazolo[5,4-c]pyridine]: the results for the pIC50 against Human HDAC8 and against Human HDAC6 were under 4.00 and 6.00 to 7.00, respectively. Moreover, at Human HDAC6, the “Selectivity (6 v 8) (fold)” value was “IV (IV: >100-1000)”.

Consider `FC(F)c1nnc(-c2ccc(COc3cncnc3)nc2)o1` [Compound 102], for which the values for the pIC50 against Human HDAC8 and at Human HDAC6 were under 4.00 and 7.00 to 9.00, respectively. Further, the “Selectivity (6 v 8) (fold)” value at Human HDAC6 is “V (V: >1000)”.

`N#Cc1cc(F)cc(OCc2ccc(-c3nnc(C(F)F)o3)cn2)c1` [Compound 51]: the pIC50 against Human HDAC8 is under 4.00. Besides, on Human HDAC6, the pIC50 was 7.00 to 9.00 and the “Selectivity (6 v 8) (fold)” value was “V (V: >1000)”.

In turn, `N#Cc1cccc(OCc2ccc(-c3nnc(C(F)F)o3)cn2)c1` [Compound 26] gave a pIC50 against Human HDAC8 of under 4.00. On Human HDAC6, the pIC50 was 7.00 to 9.00 and the “Selectivity (6 v 8) (fold)” value is recorded as “V (V: >1000)”.

Regarding `FC(F)c1nnc(-c2ccc(COc3cnccn3)nc2)o1` [Compound 68], the pIC50 at Human HDAC8 was under 4.00. At Human HDAC6, the pIC50 was 6.00 to 7.00 and the “Selectivity (6 v 8) (fold)” value is on record as “V (V: >1000)”.

Compound `FC(F)c1nnc(-c2ccc(COc3cccc4cnccc34)nc2)o1` [Compound 35] gave a pIC50 against Human HDAC8 of under 4.00. Further, on Human HDAC6, the pIC50 was 7.00 to 9.00 and the “Selectivity (6 v 8) (fold)” value is “V (V: >1000)”.

Consider `N#CCc1cccc(OCc2ccc(-c3nnc(C(F)F)o3)cn2)c1` [Compound 27], for which, at Human HDAC8, the pIC50 is under 4.00. In addition, on Human HDAC6, the pIC50 is 7.00 to 9.00 and the “Selectivity (6 v 8) (fold)” value was “V (V: >1000)”.

With `Fc1ccc(Cl)c(OCc2ccc(-c3nnc(C(F)F)o3)cn2)c1` [Compound 7, 2-(6-((2-chloro-5-fluorophenoxy)methyl)pyridin-3-yl)-5-(difluoromethyl)-1,3,4-oxadiazole], the pIC50 was under 4.00 against Human HDAC8 and 7.00 to 9.00 against Human HDAC6. Moreover, the “Selectivity (6 v 8) (fold)” value on Human HDAC6 is “V (V: >1000)”.

For the compound `Cc1cc(OCc2ccc(-c3nnc(C(F)F)o3)cn2)ccn1` [Compound 74], the pIC50 on Human HDAC8 is under 4.00. Besides, at Human HDAC6, the pIC50 was 7.00 to 9.00 and the “Selectivity (6 v 8) (fold)” value is “V (V: >1000)”.

With `Cn1cnc2cc(OCc3ccc(-c4nnc(C(F)F)o4)cn3)ccc21` [Compound 57], the pIC50 against Human HDAC8 was 4.00 to 5.00; against Human HDAC6, 7.00 to 9.00. Also, the “Selectivity (6 v 8) (fold)” value on Human HDAC6 is reported as “IV (IV: >100-1000)”.

On Human HDAC8, `FC(F)c1nnc(-c2ccc(COc3ccc4ocnc4c3)nc2)o1` [Compound 53] gave a pIC50 of under 4.00. Moreover, on Human HDAC6, the pIC50 is 7.00 to 9.00 and the “Selectivity (6 v 8) (fold)” value is listed as “V (V: >1000)”.

Consider `FC(F)c1nnc(-c2ccc(COc3ccccn3)nc2)o1` [Compound 16, 2-(difluoromethyl)-5-(6-((pyridin-2-yloxy)methyl)pyridin-3-yl)-1,3,4-oxadiazole], for which the pIC50 against Human HDAC8 is under 4.00; against Human HDAC6 it was 7.00 to 9.00. In addition, on Human HDAC6, the “Selectivity (6 v 8) (fold)” value is “V (V: >1000)”.

In the case of `Fc1ccc(OCc2ccc(-c3nnc(C(F)F)o3)cn2)cc1` [Compound 12, 2-(difluoromethyl)-5-(6-((4-fluorophenoxy)methyl)pyridin-3-yl)-1,3,4-oxadiazole], the results for the pIC50 at Human HDAC8 and at Human HDAC6 were under 4.00 and 7.00 to 9.00, respectively. In addition, the “Selectivity (6 v 8) (fold)” value on Human HDAC6 is reported as “V (V: >1000)”.

As for `N#Cc1ccccc1OCc1ccc(-c2nnc(C(F)F)o2)cn1` [Compound 42], the pIC50 against Human HDAC8 was under 4.00. Also, at Human HDAC6, the pIC50 is 7.00 to 9.00 and the “Selectivity (6 v 8) (fold)” value is “V (V: >1000)”.

`FC(F)c1nnc(-c2ccc(COc3ccc4c(c3)ncn4CCN3CCCC3)nc2)o1` [Compound 209] gave a pIC50 against Human HDAC8 of under 4.00. Besides, at Human HDAC6, the pIC50 was 5.00 to 6.00 and the “Selectivity (6 v 8) (fold)” value is “III (III: >10-100)”.

Compound `Cc1nc(OCc2ccc(-c3nnc(C(F)F)o3)cn2)c2ccccc2n1` [Compound 97] showed a pIC50 at Human HDAC8 of under 4.00. Also, on Human HDAC6, the pIC50 was 7.00 to 9.00 and the “Selectivity (6 v 8) (fold)” value is recorded as “V (V: >1000)”.

In the case of `N#Cc1cc(OCc2ccc(-c3nnc(C(F)F)o3)cn2)ccc1F` [Compound 30], the pIC50 at Human HDAC8 is under 4.00; on Human HDAC6, 7.00 to 9.00. Besides, on Human HDAC6, the “Selectivity (6 v 8) (fold)” value is reported as “V (V: >1000)”.

Turning to `CC(C)n1cnc2cc(OCc3ccc(-c4nnc(C(F)F)o4)cn3)ccc21` [Compound 212], the pIC50 on Human HDAC8 is under 4.00. In addition, at Human HDAC6, the pIC50 was 6.00 to 7.00 and the “Selectivity (6 v 8) (fold)” value is “IV (IV: >100-1000)”.

At Human HDAC8, `Cn1nccc1OCc1ccc(-c2nnc(C(F)F)o2)cn1` [Compound 67] had a pIC50 of under 4.00. Further, on Human HDAC6, the pIC50 is 6.00 to 7.00 and the “Selectivity (6 v 8) (fold)” value is given as “V (V: >1000)”.

Turning to `N#Cc1cccc(F)c1OCc1ccc(-c2nnc(C(F)F)o2)cn1` [Compound 48], the pIC50 against Human HDAC8 is under 4.00; against Human HDAC6, 7.00 to 9.00. Moreover, at Human HDAC6, the “Selectivity (6 v 8) (fold)” value is on record as “V (V: >1000)”.

On Human HDAC6, `FC(F)c1nnc(-c2ccc(COc3ncco3)nc2)o1` [Compound 100] had a pIC50 of 6.00 to 7.00.

With `Fc1cc(-c2nnc(C(F)F)o2)cnc1COc1cccc2cnccc12` [Compound 125], the pIC50 against Human HDAC6 is 7.00 to 9.00.

As to `Cc1nc2ccc(OCc3ccc(-c4nnc(C(F)F)o4)cn3)cc2o1` [Compound 38], the pIC50 at Human HDAC6 is 7.00 to 9.00.

Turning to `FC(F)c1nnc(-c2ccc(COc3nccn4ccnc34)nc2)o1` [Compound 86, 2-(difluoromethyl)-5-(6-((imidazo[1,2-a]pyrazin-8-yloxy)methyl)pyridin-3-yl)-1,3,4-oxadiazole], the negative logarithm of the IC50 (pIC50) against Human HDAC6 is 7.00 to 9.00.

With `Fc1cc(-c2nnc(C(F)F)o2)cnc1COc1cccc2cccnc12` [Compound 130], the pIC50 on Human HDAC6 is 7.00 to 9.00.

In the case of `FC(F)c1nnc(-c2ccc(COc3nnc4ccccn34)nc2)o1` [Compound 87], on Human HDAC6, the pIC50 was 7.00 to 9.00.

`Fc1cc(-c2nnc(C(F)F)o2)cnc1COc1ccc2cnccc2c1` [Compound 155] had a pIC50 at Human HDAC6 of 7.00 to 9.00.

`Cn1cnc2cc(OCc3ncc(-c4nnc(C(F)F)o4)cc3F)ccc21` [Compound 147] had a pIC50 on Human HDAC6 of 7.00 to 9.00.

At Human HDAC6, `Cc1noc2cccc(OCc3ncc(-c4nnc(C(F)F)o4)cn3)c12` [Compound 134] showed a pIC50 of 7.00 to 9.00.

For the compound `FC(F)c1nnc(-c2ccc(COc3ccc(-c4nc5ccccc5[nH]4)cc3)nc2)o1` [Compound 207], on Human HDAC6, the pIC50 is 7.00 to 9.00.

Take `Fc1cc(-c2nnc(C(F)F)o2)cnc1COc1cccc2ccncc12` [Compound 126]: on Human HDAC6, the pIC50 is 7.00 to 9.00.

Regarding `FC(F)c1nnc(-c2cnc(COc3cccc4ocnc34)nc2)o1` [Compound 144], the pIC50 at Human HDAC6 was 7.00 to 9.00.

On Human HDAC6, `Cn1cnc2c(OCc3ccc(-c4nnc(C(F)F)o4)cn3)cccc21` [Compound 208] gave a pIC50 of 7.00 to 9.00.

As to `Cn1ccnc1OCc1ccc(-c2nnc(C(F)F)o2)cn1` [Compound 105], the pIC50 against Human HDAC6 was 6.00 to 7.00.

Take `Cn1nccc1-c1ccc(OCc2ccc(-c3nnc(C(F)F)o3)cn2)cc1` [Compound 199, 2-(Difluoromethyl)-5-(6-((4-(1-methyl-1H-pyrazol-5-yl)phenoxy)methyl)pyridin-3-yl)-1,3,4-oxadiazole]: at Human HDAC6, the negative logarithm of the IC50 (pIC50) was 7.00 to 9.00.

As for `Fc1cc(-c2nnc(C(F)F)o2)cnc1COc1cccn2ccnc12` [Compound 123], the pIC50 on Human HDAC6 is 7.00 to 9.00.

Turning to `FC(F)c1nnc(-c2cnc(COc3ccc4cnccc4c3)nc2)o1` [Compound 154], the pIC50 on Human HDAC6 was 7.00 to 9.00.

On Human HDAC6, `Fc1cc(-c2nnc(C(F)F)o2)cnc1COc1ccc2ccncc2c1` [Compound 157] gave a pIC50 of 7.00 to 9.00.

`Cc1ccc2ncnc(OCc3ccc(-c4nnc(C(F)F)o4)cn3)c2c1` [Compound 95]: on Human HDAC6, the pIC50 was 7.00 to 9.00.

On Human HDAC6, `FC(F)c1nnc(-c2cnc(COc3ccc4nccnc4c3)nc2)o1` [Compound 150] had a pIC50 of 7.00 to 9.00.

For the compound `FC(F)c1nnc(-c2ccc(COc3ccnc(Cl)c3)nc2)o1` [Compound 189, 2-(6-(((2-Chloropyridin-4-yl)oxy)methyl)pyridin-3-yl)-5-(difluoromethyl)-1,3,4-oxadiazole], the pIC50 on Human HDAC6 is 7.00 to 9.00.

Take `N#Cc1ccc(OCc2ncc(-c3nnc(C(F)F)o3)cn2)cc1` [Compound 164]: the pIC50 on Human HDAC6 was 7.00 to 9.00.

The compound `Fc1cc(-c2nnc(C(F)F)o2)cnc1COc1ccc2cccnc2c1` [Compound 124] had a pIC50 against Human HDAC6 of 7.00 to 9.00.

`FC(F)c1nnc(-c2ccc(COc3ncnc4cc(Cl)ccc34)nc2)o1` [Compound 98]: the pIC50 on Human HDAC6 is 7.00 to 9.00.
